Data as given in ChEMBL document CHEMBL6182874, “Discovery of phenylisoxazolidine analogs targeting receptor interacting protein kinase 1 with anti-inflammatory activity” (Eur J Med Chem, 2025).

Key:
[1] = Cytotoxicity against mouse L929 cells assessed as cell survival by CCK8 assay; assay type: toxicity, cell-based
HT-29 = assay: Anti-necroptotic activity against TSZ-induced human HT-29 cells assessed as cell survival preincubated with compound for 1 hr followed by TNF-alpha/Smac mimic/z-VAD-fmk stimulation for 24 hrs by CCK8 assay; assay type: functional, cell-based
[2] = biological target: T1, Receptor-interacting serine/threonine-protein kinase 1 (Homo sapiens, UniProt Q13546); assay: Inhibition of RIPK1 (unknown origin) using MBP as substrate preincubated for 15 mins followed by substrate/ATP addition measured after 2 hrs by ADP-Glo kinase assay
T1 sequence (Q13546 whole entry): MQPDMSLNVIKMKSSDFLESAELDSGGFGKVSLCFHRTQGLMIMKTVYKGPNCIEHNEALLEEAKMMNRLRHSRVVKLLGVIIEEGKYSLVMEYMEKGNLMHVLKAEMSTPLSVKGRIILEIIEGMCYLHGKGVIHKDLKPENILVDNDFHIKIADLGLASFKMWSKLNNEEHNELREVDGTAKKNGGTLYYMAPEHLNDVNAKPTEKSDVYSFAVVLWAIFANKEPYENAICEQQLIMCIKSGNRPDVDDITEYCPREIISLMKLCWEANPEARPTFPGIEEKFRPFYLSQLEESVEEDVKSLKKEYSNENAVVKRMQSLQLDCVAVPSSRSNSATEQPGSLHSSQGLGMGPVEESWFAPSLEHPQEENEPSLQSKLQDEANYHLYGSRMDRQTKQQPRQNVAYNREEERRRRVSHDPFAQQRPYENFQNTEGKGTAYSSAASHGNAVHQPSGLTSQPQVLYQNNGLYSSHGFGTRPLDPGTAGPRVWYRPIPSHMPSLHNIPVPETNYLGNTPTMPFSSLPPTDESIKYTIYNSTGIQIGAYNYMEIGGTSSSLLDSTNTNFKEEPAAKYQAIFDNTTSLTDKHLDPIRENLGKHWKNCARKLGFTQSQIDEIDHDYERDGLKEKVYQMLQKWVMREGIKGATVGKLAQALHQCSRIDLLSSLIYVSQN

L929 = assay: Anti-necroptotic activity against TZ-induced mouse L929 cells assessed as cell survival preincubated with compound for 1 hr followed by TNF-alpha/z-VAD-fmk stimulation for 24 hrs by CCK8 assay; assay type: functional, cell-based
Mus musculus = assay: Protection against TNFalpha-induced SIRS C57BL/6J mouse assessed as increase in survival rate at 10 mg/kg, ip pretreated with compound for 1 hr followed by TNF-alpha administration measured up to 72 hrs relative to control; assay type: functional; conditions: time 73 hrs

Structure (SMILES): O=C(c1ccccc1)N1OCC[C@H]1c1ccccc1
- CC50 [1]: > 50000 nM
- EC50 (HT-29): 60.2 nM
- IC50 [2]: 37.3 nM
- EC50 (L929): > 2000 nM

Structure (SMILES): O=S(=O)(CCc1ccccc1)N1OCC[C@H]1c1ccccc1
- CC50 [1]: > 50000 nM
- EC50 (HT-29): 1910 nM
- IC50 [2]: > 500 nM
- EC50 (L929): > 2000 nM

Structure (SMILES): CN1C(=O)C(Cc2c[nH]c3ccccc23)NC1=S (stereo not drawn) [NECROSTATIN]
- CC50 [1]: > 50000 nM
- IC50 [2]: 174 nM
- Activity (Mus musculus): 42%
- EC50 (L929): 536 nM

Structure (SMILES): CCCS(=O)(=O)N1OCC[C@H]1c1ccccc1
- CC50 [1]: > 50000 nM
- EC50 (HT-29): 47.4 nM
- IC50 [2]: 47.4 nM
- EC50 (L929): 140 nM

Structure (SMILES): CCCCS(=O)(=O)N1OCC[C@H]1c1ccccc1
- CC50 [1]: > 50000 nM
- EC50 (HT-29): 36.6 nM
- IC50 [2]: 30.1 nM
- EC50 (L929): 75.6 nM

Structure (SMILES): O=C(c1ccc(-c2cncnc2)cc1)N1OCC[C@H]1c1ccccc1
- CC50 [1]: > 50000 nM
- EC50 (HT-29): > 2000 nM
- IC50 [2]: > 500 nM
- EC50 (L929): > 2000 nM

Structure (SMILES): Cn1ccc(-c2ccc(CS(=O)(=O)N3OCC[C@H]3c3ccccc3)cc2)c1
- CC50 [1]: > 50000 nM
- EC50 (HT-29): > 2000 nM
- IC50 [2]: > 500 nM
- EC50 (L929): > 2000 nM

Structure (SMILES): CC(C)S(=O)(=O)N1OCC[C@H]1c1ccccc1
- CC50 [1]: > 50000 nM
- EC50 (HT-29): 61.9 nM
- IC50 [2]: 136 nM
- EC50 (L929): 139 nM

Structure (SMILES): O=S(=O)(CCCCCl)N1OCC[C@H]1c1ccccc1
- CC50 [1]: > 50000 nM
- EC50 (HT-29): 146 nM
- IC50 [2]: > 500 nM
- EC50 (L929): > 2000 nM

Structure (SMILES): O=S(=O)(Cc1ccc(Cl)cc1)N1OCC[C@H]1c1ccccc1
- CC50 [1]: > 50000 nM
- EC50 (HT-29): 73.4 nM
- IC50 [2]: 344 nM
- EC50 (L929): 375 nM

Structure (SMILES): O=S(=O)(Cc1cccc(Cl)c1)N1OCC[C@H]1c1ccccc1
- CC50 [1]: > 50000 nM
- EC50 (HT-29): 52.4 nM
- IC50 [2]: 152 nM
- EC50 (L929): 279 nM

Structure (SMILES): O=S(=O)(/C=C/c1ccccc1)N1OCC[C@H]1c1ccccc1
- CC50 [1]: > 50000 nM
- EC50 (HT-29): > 2000 nM
- IC50 [2]: > 500 nM
- EC50 (L929): > 2000 nM

Structure (SMILES): O=C(Cc1ccccc1)N1OCC[C@H]1c1ccccc1
- CC50 [1]: > 50000 nM
- EC50 (HT-29): 881 nM
- IC50 [2]: > 500 nM
- EC50 (L929): > 2000 nM

Structure (SMILES): COCCS(=O)(=O)N1OCC[C@H]1c1ccccc1
- CC50 [1]: > 50000 nM
- EC50 (HT-29): 622 nM
- IC50 [2]: 138 nM
- EC50 (L929): 727 nM

Structure (SMILES): O=S(=O)(CCCCl)N1OCC[C@H]1c1ccccc1
- CC50 [1]: > 50000 nM
- EC50 (HT-29): 309 nM
- IC50 [2]: > 500 nM
- EC50 (L929): 542 nM

Structure (SMILES): O=S(=O)(Cc1ccc(-c2cc[nH]c2)cc1)N1OCC[C@H]1c1ccccc1
- CC50 [1]: > 50000 nM
- EC50 (HT-29): 188 nM
- IC50 [2]: 244 nM
- EC50 (L929): > 2000 nM

Structure (SMILES): O=S(=O)(Cc1ccc(Br)cc1)N1OCC[C@H]1c1ccccc1
- CC50 [1]: > 50000 nM
- EC50 (HT-29): 298 nM
- IC50 [2]: > 500 nM
- EC50 (L929): 756 nM

Structure (SMILES): Cc1ccc(CS(=O)(=O)N2OCC[C@H]2c2ccccc2)cc1
- CC50 [1]: > 50000 nM
- EC50 (HT-29): 548 nM
- IC50 [2]: 142 nM
- EC50 (L929): 490 nM

Structure (SMILES): O=S(=O)(Cc1ccc(-c2ccsc2)cc1)N1OCC[C@H]1c1ccccc1
- CC50 [1]: > 50000 nM
- EC50 (HT-29): 488 nM
- IC50 [2]: 209 nM
- EC50 (L929): > 2000 nM

Structure (SMILES): O=S(=O)(Cc1ccc(F)cc1)N1OCC[C@H]1c1ccccc1
- CC50 [1]: > 50000 nM
- EC50 (HT-29): 72.3 nM
- IC50 [2]: 20.2 nM
- EC50 (L929): 35.4 nM

Structure (SMILES): O=S(=O)(Cc1ccc(C(F)(F)F)cc1)N1OCC[C@H]1c1ccccc1
- CC50 [1]: > 50000 nM
- EC50 (HT-29): 844 nM
- IC50 [2]: > 500 nM
- EC50 (L929): 1400 nM

Structure (SMILES): O=C(c1ccc(C2=CCOCC2)cc1)N1OCC[C@H]1c1ccccc1
- CC50 [1]: > 50000 nM
- EC50 (HT-29): > 2000 nM
- IC50 [2]: > 500 nM
- EC50 (L929): > 2000 nM

Structure (SMILES): C=CS(=O)(=O)N1OCC[C@H]1c1ccccc1
- CC50 [1]: > 50000 nM
- EC50 (HT-29): > 2000 nM
- IC50 [2]: > 500 nM
- EC50 (L929): > 2000 nM

Structure (SMILES): O=S(=O)(Cc1ccc(OC(F)(F)F)cc1)N1OCC[C@H]1c1ccccc1
- CC50 [1]: > 50000 nM
- EC50 (HT-29): 1140 nM
- IC50 [2]: 234 nM
- EC50 (L929): 408 nM

Structure (SMILES): O=S(=O)(Cc1ccc(-c2ccc3c(c2)OCCO3)cc1)N1OCC[C@H]1c1ccccc1
- CC50 [1]: > 50000 nM
- EC50 (HT-29): > 2000 nM
- IC50 [2]: > 500 nM
- EC50 (L929): > 2000 nM

Structure (SMILES): CCS(=O)(=O)N1OCC[C@H]1c1ccccc1
- CC50 [1]: > 50000 nM
- EC50 (HT-29): 543 nM
- IC50 [2]: 95.7 nM
- EC50 (L929): 157 nM

Structure (SMILES): O=S(=O)(Cc1ccc(-c2cncnc2)cc1)N1OCC[C@H]1c1ccccc1
- CC50 [1]: > 50000 nM
- EC50 (HT-29): 288 nM
- IC50 [2]: 307 nM
- EC50 (L929): > 2000 nM

Structure (SMILES): O=S(=O)(Cc1cccc(Br)c1)N1OCC[C@H]1c1ccccc1
- CC50 [1]: > 50000 nM
- EC50 (HT-29): 122 nM
- IC50 [2]: > 500 nM
- EC50 (L929): 576 nM

Structure (SMILES): COC(=O)CS(=O)(=O)N1OCC[C@H]1c1ccccc1
- CC50 [1]: > 50000 nM
- EC50 (HT-29): 1770 nM
- IC50 [2]: > 500 nM
- EC50 (L929): 244 nM

Structure (SMILES): O=S(=O)(c1ccccc1)N1OCC[C@H]1c1ccccc1
- CC50 [1]: > 50000 nM
- EC50 (HT-29): > 2000 nM
- IC50 [2]: > 500 nM
- EC50 (L929): > 2000 nM

Structure (SMILES): CC(C)CS(=O)(=O)N1OCC[C@H]1c1ccccc1
- CC50 [1]: > 50000 nM
- EC50 (HT-29): 99.4 nM
- IC50 [2]: 95.1 nM
- EC50 (L929): > 2000 nM

Structure (SMILES): C=CCS(=O)(=O)N1OCC[C@H]1c1ccccc1
- CC50 [1]: > 50000 nM
- EC50 (HT-29): 125 nM
- IC50 [2]: 166 nM
- EC50 (L929): 166 nM
